# Experimental data taken from PMC9428149, “Tackling recalcitrant Pseudomonas aeruginosa infections in critical illness via anti-virulence monotherapy” (Nature Communications, 2022).
# Where two headings read alike, the source gives them in different places.
# Columns and labels:
# [1] = test system: pqsA promoter (PA14 PpqsA-GFPASV); test: pqsA-GFP reporter expression; type: cell-based, Pseudomonas aeruginosa; details: Pseudomonas aeruginosa
# PA14 AT/P cells = test: AT/P cells formation assay in PA14; type: cell-based, Pseudomonas aeruginosa; details: Pseudomonas aeruginosa, PA14, 24 h, read-out: inhibition of AT/P cells formation
# [2] = test system: mvfR mutant constitutively expressing the pqsABCDE operon; type: cell-based; details: Pseudomonas aeruginosa, control about 100, single replicates (Figure 4a)
# MvfR protein (MvfRC87) = target: T1, MvfR protein (MvfRC87) (Pseudomonas aeruginosa, UniProt Q9I4X0); type: binding; details: SPR
# T1 construct: The MvfRC87 protein purified as in Xiao et. al., 2006; made in house
# T1 sequence (Q9I4X0 87-332): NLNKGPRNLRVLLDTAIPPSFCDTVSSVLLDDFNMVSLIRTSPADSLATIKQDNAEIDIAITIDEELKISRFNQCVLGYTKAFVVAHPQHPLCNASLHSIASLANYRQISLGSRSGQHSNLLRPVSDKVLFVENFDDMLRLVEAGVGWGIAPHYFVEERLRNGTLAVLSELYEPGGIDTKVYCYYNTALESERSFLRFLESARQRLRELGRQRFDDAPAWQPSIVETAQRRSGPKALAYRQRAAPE
# Method: The selected compounds were tested for their ability to bind to MvfR. Target validation was carried out by using surface plasmon resonance (SPR). The MvfRC87 protein purified as in Xiao et. al., 2006[33] was covalently immobilized on a CM7 Series S sensor chip using an amine coupling reagent kit (GE Healthcare) at the range level of 3000 to 5000 response units (RU). RU was analyzed by Biacore T200 evaluation software 2.0 (GE Healthcare). The relative response units (RUs) 5 seconds before the end of the association were extracted from the double-reference-corrected sensor grams at different concentrations. These responses were plotted against their respective concentrations for MvfR inhibitor alone and in the presence of native MvfR ligand PQS and compared to the calculated responses for the mixture expected for different binding sites.
# [3] = Solubility in iPBS pH 7.4 by HPLC; type: physicochemical; details: isotonic phosphate buffer (iPBS), aqueous with cosolvent or surfactant or cyclodextrin, kinetic from dmso stock; iPBS pH 7.4, HPLC; read-out: Solubility (M) in PBS
# Method: Solubility of the 10 mM compounds dissolved in DMSO was tested in the isotonic phosphate buffer (iPBS) at pH 7.4 using High-Performance Liquid Chromatography (HPLC). For the preparation of iPBS phosphate-buffered saline tab (Sigma-Aldrich 08057-12Tab-F) is dissolved in 500 mL of deionized water and the final composition of the solution contains 10 mM PBS, 2.7 mM KCl, 140 mM NaCl and 0.05% Tween. A total 10 µL of the compound from a 10 mM stock solution in DMSO was added to the vial, and 190 µL of buffer was added to each vial and mixed with shaking at room temperature for 4 h. Thereafter the samples were filtered, and 160 µL of the sample was mixed with 40 µL of DMSO for the final injection. Ibuprofen (high solubility) and Progesterone (low Solubility) were used as standard compounds. Ammonium Acetate aqueous solution (50 mM, pH 7.4) and the acetonitrile were used as mobile phases A and B, respectively. The measurement of concentration was achieved by comparing of UV absorbance of the sample solution and the known standard solution following an HPLC separation using a generic fast gradient method. The solubility of each compound is expressed by the ratio of compound amount in the sample test solution to the amount of compound in the standard solution.
# [4] = test system: pyocyanin production in PA14; test: Pyocyanin production assay; details: Pseudomonas aeruginosa
# [5] = test system: 16 MDR P. aeruginosa clinical isolates; test: Pyocyanin production in MDR clinical isolates; details: Pseudomonas aeruginosa, 18 h, Control about 100, replicates
# [6] = test system: PA14 isogenic mutant ΔmvfR AT/P cells; test: AT/P cell formation in ΔmvfR mutant (off-target); details: Pseudomonas aeruginosa, PA14, 24 h, read-out: AT/P cell formation, ΔmvfR + compound; PA14 about 100; single replicates (Figure 4b)
# [7] = test system: MvfR-regulated small molecules in PA14; test: Production of HAQs, 2-AA, DHQ and AA in PA14 cultures (LC-MS); details: Pseudomonas aeruginosa
structure (smiles),measurement,setting,value
N#Cc1ccc(NC(=O)CC(=O)Nc2ccc(Br)cc2)cc1 [D42],activity at 50 µM,"[1]; PA14, read-out: % Production pqsA-GFP",8%
same,IC50,"[1]; PA14, read-out: IC50 pqsA-GFP expression, PA14, 13 concentrations",0.92 µM
same,inhibition at 10 µM,PA14 AT/P cells,≥ 76%
same,activity at 50 µM,"[2]; read-out: HQNO, ΔmvfR-pqsABCD strain",90.7%
same,activity at 50 µM,"[2]; read-out: PQS, ΔmvfR-pqsABCD strain",98.9%
same,Response Unit (RU),MvfR protein (MvfRC87); Concentration 1.00E-05 M,30 RU
same,Response Unit (RU),MvfR protein (MvfRC87); Concentration 1.00E-06 M,23 RU
same,Response Unit (RU),MvfR protein (MvfRC87); Concentration 1.00E-07 M,10.1 RU
same,Response Unit (RU),MvfR protein (MvfRC87); Concentration 1.00E-08 M,2.1 RU
same,Response Unit (RU),MvfR protein (MvfRC87); Concentration 3.16E-06 M,27.4 RU
same,Response Unit (RU),MvfR protein (MvfRC87); Concentration 3.16E-07 M,16.8 RU
same,Response Unit (RU),MvfR protein (MvfRC87); Concentration 3.16E-08 M,5 RU
same,solubility at 4 h,[3],1.5e-05 M
same,activity at 50 µM,"[4]; PA14, 18 h, read-out: % Production Pyocyanin",6%
same,IC50,"[4]; PA14, read-out: IC50 pyocyanin production",1.34 µM
same,activity at 10 µM,"[5]; read-out: Pyocyanin production relative to Control, clinical isolate LGR-4325",15.2%
same,activity at 10 µM,"[5]; read-out: Pyocyanin production relative to Control, clinical isolate LGR-4326",9.87%
same,activity at 10 µM,"[5]; read-out: Pyocyanin production relative to Control, clinical isolate LGR-4327",23.8%
same,activity at 10 µM,"[5]; read-out: Pyocyanin production relative to Control, clinical isolate LGR-4328",15.7%
same,activity at 10 µM,"[5]; read-out: Pyocyanin production relative to Control, clinical isolate LGR-4330",16.4%
same,activity at 10 µM,"[5]; read-out: Pyocyanin production relative to Control, clinical isolate LGR-4331 (first section, r117)",17.2%
same,activity at 10 µM,"[5]; read-out: Pyocyanin production relative to Control, clinical isolate LGR-4331 (second section, r140)",10%
same,activity at 10 µM,"[5]; read-out: Pyocyanin production relative to Control, clinical isolate LGR-4333",11.6%
same,activity at 10 µM,"[5]; read-out: Pyocyanin production relative to Control, clinical isolate LGR-4343",15.3%
same,activity at 10 µM,"[5]; read-out: Pyocyanin production relative to Control, clinical isolate LGR-4344",19.4%
same,activity at 10 µM,"[5]; read-out: Pyocyanin production relative to Control, clinical isolate LGR-4348",11.9%
same,activity at 10 µM,"[5]; read-out: Pyocyanin production relative to Control, clinical isolate LGR-4356",16.3%
same,activity at 10 µM,"[5]; read-out: Pyocyanin production relative to Control, clinical isolate LGR-4362",26.2%
same,activity at 10 µM,"[5]; read-out: Pyocyanin production relative to Control, clinical isolate LGR-4363",20.8%
same,activity at 10 µM,"[5]; read-out: Pyocyanin production relative to Control, clinical isolate LGR-4364 (first section, r326)",16.1%
same,activity at 10 µM,"[5]; read-out: Pyocyanin production relative to Control, clinical isolate LGR-4364 (second section, r349)",16.4%
same,activity at 10 µM,[6],25.1%
same,activity at 50 µM,"[7]; PA14, read-out: % Production 2-AA",6%
same,activity at 50 µM,"[7]; PA14, read-out: % Production AA",701%
same,activity at 50 µM,"[7]; PA14, read-out: % Production DHQ",11%
same,activity at 50 µM,"[7]; PA14, read-out: % Production HHQ",2%
same,activity at 50 µM,"[7]; PA14, read-out: % Production HQNO",14%
same,activity at 50 µM,"[7]; PA14, read-out: % Production PQS",8%
same,inhibition at 50 µM,"[7]; PA14, read-out: HHQ production inhibition",89 to 99%
same,inhibition at 50 µM,"[7]; PA14, read-out: HQNO production inhibition",40 to 92%
same,inhibition at 50 µM,"[7]; PA14, read-out: PQS production inhibition",76 to 97%
same,inhibition at 50 µM,"[7]; PA14, read-out: inhibition of 2-AA production",82 to 95%
same,inhibition at 50 µM,"[7]; PA14, read-out: inhibition of DHQ production",82 to 96%
